According to patent US20070004736A1, “Imidazole derivative, process for producing the same, and use” (priority 2002, published 2007):
Where a name gives a salt, the structure may show the parent alone.

Each molecule was assayed against human FXa (Homo sapiens, UniProt P00742) (assay: Human activated blood coagulation factor X (FXa) inhibitory activity). Conditions: concentration at which 50% of FXa activity was inhibited; substrate S-2765, 37° C., absorbance at 405 nm.
Assay type: biochemical
Experimental: (1) Human Activated Blood Coagulation Factor X (FXa) Inhibitory Activity
Experimental method: 225 μl of a 0.05 M Tris-HCl buffer (pH 8.3) containing 0.145 M sodium chloride and 2 mM calcium chloride, 5 μl of a sample (a test compound was dissolved in dimethyl sulfoxide) and 10 μl of human FXa (0.3 unit/ml) were added to a 96-well microplate and incubated at 37° C. for about 10 minutes. Then, 10 μl of a substrate (3 mM, S-2765) was added to the plate and incubated at 37° C. for 10 minutes. After stopping the reaction by adding 25 μl of a 50% aqueous acetic acid, a change in absorbance at 405 nm was measured with a spectrophotometer, and the concentration (IC50) at which 50% of FXa activity was inhibited was calculated.

human FXa, sequence (P00742 235-488 limits assumed): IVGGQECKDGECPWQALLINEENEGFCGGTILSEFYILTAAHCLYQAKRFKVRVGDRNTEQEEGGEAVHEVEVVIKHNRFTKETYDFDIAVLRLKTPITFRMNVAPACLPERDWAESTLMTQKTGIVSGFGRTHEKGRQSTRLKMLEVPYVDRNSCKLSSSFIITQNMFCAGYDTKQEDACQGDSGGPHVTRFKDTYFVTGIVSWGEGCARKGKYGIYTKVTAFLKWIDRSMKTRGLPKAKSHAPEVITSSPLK
human FXa, sequence (P00742 41-179 partner limits assumed): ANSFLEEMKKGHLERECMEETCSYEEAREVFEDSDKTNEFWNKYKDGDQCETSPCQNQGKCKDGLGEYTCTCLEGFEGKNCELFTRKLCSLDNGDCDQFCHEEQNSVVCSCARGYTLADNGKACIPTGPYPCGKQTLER

Row | SMILES | IC50 [nM]
1 | Cc1ncn2c1C(=O)N(C1CCN(C(=O)CCS(=O)(=O)c3ccc4cc(Cl)ccc4c3)CC1)CC2 [Example 39, 7-(1-{3-[(6-Chloro-2-naphthyl)sulfonyl]propanoyl}-4-piperidinyl)-1-methyl-6,7-dihydoroimidazo[1,5-a]pyrazin-8(5H)-one] | 11
2 | CCc1ncc2n1C(=O)N(C1CCN(C(=O)CCS(=O)(=O)c3ccc4cc(Cl)ccc4c3)CC1)C2 [Example 42, 2-(1-{3-[(6-Chloro-2-naphthyl)sulfonyl]propanoyl}-4-piperidinyl)-5-ethyl-1,2-dihydro-3H-imidazo[1,5-c]imidazol-3-one] | 7.1
3 | Cc1nc(C)n2c1CN(C1CCN(C(=O)CCS(=O)(=O)c3ccc4cc(Cl)ccc4c3)CC1)C2=O [Example 72, 2-(1-{3-[(6-Chloro-2-naphthyl)sulfonyl]propanoyl}-4-piperidinyl)-5,7-dimethyl-1,2-dihydro-3H-imidazo[1,5-c]imidazol-3-one] | 7.2

Continued, values first:

Row | IC50 [nM] | SMILES
4 | 31 | Cc1ncc(C2CCN(C(=O)CCS(=O)(=O)c3ccc4cc(Cl)ccc4c3)CC2)n1C [Example 24, 1-{3-[(6-Chloro-2-naphthyl)sulufonyl]propanoyl}-4-(1,2-dimethyl-1H-imidazol-5-yl)piperidine]
5 | 11 | Cc1ncc2n1CCN(C1CCN(C(=O)CCS(=O)(=O)c3ccc4cc(Cl)ccc4c3)CC1)C2=O [Example 38, 7-(1-{3-[(6-Chloro-2-naphthyl)sulfonyl]propanoyl}-4-piperidinyl)-3-methyl-6,7-dihydroimidazo[1,5-a]pyrazin-8(5H)-one]
6 | 43 | Cc1nccn1CCC1CCN(C(=O)CCS(=O)(=O)c2ccc3cc(Cl)ccc3c2)CC1 [Example 102, 1-{3-[(6-Chloro-2-naphthyl)sulfonyl]propanoyl}-4-[2-(2-methyl-1H-imdazol-1-yl)ethyl]piperidine hydrochloride]
7 | 45 | Cc1nc(C)n(CCC2CCN(C(=O)CCS(=O)(=O)c3ccc4cc(Cl)ccc4c3)CC2)c1C [Example 109, 1-{3-[(6-Chloro-2-naphthyl)sulfonyl]propanoyl}-4-[2-(2,4,5-trimethyl-1H-imidazol-1-yl)ethyl]piperidine]
